We go through ten compounds from ChEMBL document CHEMBL2331431, “Anti-inflammatory lanostanoids and lactone derivatives from Antrodia camphorata” (J Nat Prod, 2013).

Series [1] deals with RAW264.7. The experiment in a line: Cytotoxicity against LPS-stimulated mouse RAW264.7 cells at 20 ug/ml. It counts as cell-based.
Series [2] concerns the target T1, Nitric oxide synthase, inducible (Mus musculus, UniProt P29477).
T1 sequence (P29477 whole entry): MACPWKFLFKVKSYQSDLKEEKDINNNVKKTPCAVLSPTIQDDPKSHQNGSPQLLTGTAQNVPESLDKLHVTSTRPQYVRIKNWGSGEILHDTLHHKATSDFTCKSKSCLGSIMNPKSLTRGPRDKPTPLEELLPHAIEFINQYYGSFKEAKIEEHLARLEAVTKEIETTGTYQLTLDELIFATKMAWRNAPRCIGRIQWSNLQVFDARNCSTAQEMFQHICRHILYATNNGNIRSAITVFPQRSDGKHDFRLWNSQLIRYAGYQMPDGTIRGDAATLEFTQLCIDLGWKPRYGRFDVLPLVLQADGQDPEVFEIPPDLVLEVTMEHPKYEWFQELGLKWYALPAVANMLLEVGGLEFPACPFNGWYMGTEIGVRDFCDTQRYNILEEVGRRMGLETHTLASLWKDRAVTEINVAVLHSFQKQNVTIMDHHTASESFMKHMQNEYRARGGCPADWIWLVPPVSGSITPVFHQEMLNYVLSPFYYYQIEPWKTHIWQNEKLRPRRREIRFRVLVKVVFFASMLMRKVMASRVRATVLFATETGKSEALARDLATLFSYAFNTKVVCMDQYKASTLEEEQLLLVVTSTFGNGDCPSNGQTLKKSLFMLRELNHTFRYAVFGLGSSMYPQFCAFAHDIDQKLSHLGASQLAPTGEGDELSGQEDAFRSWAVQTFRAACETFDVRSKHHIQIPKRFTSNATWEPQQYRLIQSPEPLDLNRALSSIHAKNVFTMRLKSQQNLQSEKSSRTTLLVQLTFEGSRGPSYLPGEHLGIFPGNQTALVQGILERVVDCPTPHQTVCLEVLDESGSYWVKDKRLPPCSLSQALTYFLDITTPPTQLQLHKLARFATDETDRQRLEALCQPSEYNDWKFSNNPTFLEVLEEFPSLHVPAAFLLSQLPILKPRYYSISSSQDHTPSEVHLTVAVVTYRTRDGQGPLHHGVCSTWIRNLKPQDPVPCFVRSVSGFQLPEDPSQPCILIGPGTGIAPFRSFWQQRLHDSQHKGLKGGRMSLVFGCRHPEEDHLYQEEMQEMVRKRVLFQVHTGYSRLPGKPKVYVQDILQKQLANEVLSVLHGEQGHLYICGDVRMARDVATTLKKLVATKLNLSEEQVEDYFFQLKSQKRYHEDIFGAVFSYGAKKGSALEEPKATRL
The experiment in a line: Inhibition of iNOS-mediated nitric oxide production in LPS-stimulated mouse RAW264.7 cells after 24 hrs by Griess reaction analysis. It counts as cell-based.

Series [3] deals with HL-60. The experiment in a line: Cytotoxicity against human HL60 cells assessed as inhibition of cell proliferation after 24 hrs. The settings on record: HL-60, 24 h. The series is classed as functional, cell-based.
The subject of series [4] is K562. Briefly: Cytotoxicity against human K562 cells assessed as inhibition of cell proliferation after 24 hrs. It counts as functional, cell-based. The settings on record: K562, 24 h.

SMILES strings stand for the structures. ≈ marks a conversion by molar mass, not a printed value.

By IC50 is commonly meant the concentration that gives 50% inhibition. In the case of `CCOC(=O)C(C)CC(=O)C[C@@H](C)[C@H]1CC(=O)[C@@]2(C)C3=C(C(=O)C(=O)[C@]12C)[C@@]1(C)CCC(=O)C(C)(C)[C@@H]1CC3=O` (some centres not stated), in series [1], the Activity result is on record as “Non-toxic”. The IC50 in series [2] is 6.2 µM.
Take `CCOC(=O)CC[C@@H](C)[C@H]1CC(=O)[C@@]2(C)C3=C(C(=O)C[C@]12C)[C@@]1(C)CCC(=O)C(C)(C)[C@@H]1C[C@@H]3O` [ETHYL LUCIDENATE A]: the Activity result in series [1] is given as “Non-toxic”. For the same compound, the IC50 in series [3] worked out at 30 µg/mL (≈ 61.6 µM); in series [4], 30 µg/mL (≈ 61.6 µM); in series [2], 10.8 µM.
Turning to `CC(=O)O[C@H]1C[C@H]([C@H](C)CC(=O)CC(C)C(=O)O)[C@@]2(C)CC(=O)C3=C(CC[C@H]4C(C)(C)C(=O)CC[C@]34C)[C@]12C` (some centres not stated), the Activity result in series [1] is on record as “Non-toxic”. In addition, in series [2], the IC50 is 4.9 µM.
For `COCC1(O)OC(=O)C=C1C` (racemic) the same measures were “Non-toxic” and above 20 µM.
In the case of `COc1cc(CCC(=O)O)oc(=O)c1`, the Activity result in series [1] is recorded as “Non-toxic”. In addition, in series [2], the IC50 was above 20 µM.
For `C/C(=C\CC[C@@H](C)[C@H]1CC[C@@]2(C)C3=C(C(=O)C[C@]12C)[C@@]1(C)CCC(=O)C(C)(C)[C@@H]1CC3=O)C(=O)O` the same measures were “Non-toxic” and 5 µM.
The like results for `C/C(=C\CC[C@@H](C)[C@H]1CC[C@@]2(C)C3=C([C@H](O)C[C@]12C)[C@@]1(C)CCC(=O)C(C)(C)[C@@H]1CC3=O)C(=O)O` were, in that order, “Non-toxic” and 5 µM.
`COC(=O)C(C)CC(=O)C[C@@H](C)[C@H]1CC(=O)[C@@]2(C)C3=C(C(=O)C(=O)[C@]12C)[C@@]1(C)CCC(=O)C(C)(C)[C@@H]1CC3=O` (some centres not stated): in series [1], the Activity entry was “Non-toxic”. Besides, inhibition in series [2] was half-maximal at 8.9 µM (IC50).
The like results for `CC(CC(=O)C[C@@H](C)C1=CC(=O)[C@@]2(C)C3=C(C(=O)C[C@]12C)[C@@]1(C)CCC(=O)C(C)(C)[C@@H]1C[C@@H]3O)C(=O)O` (some centres not stated) were, in that order, “Non-toxic” and above 20 µM.
For `CCOC(=O)CC[C@@H](C)[C@H]1CC(=O)[C@@]2(C)C3=C(C(=O)C[C@]12C)[C@@]1(C)CCC(=O)C(C)(C)[C@@H]1CC3=O` [ETHYL LUCIDENATE F] the same measures were “Non-toxic” and above 20 µM.
